This test deals with T1, LdAAP3 (Leishmania donovani, UniProt Q86G79).
T1 construct: native transporter in intact mid-log promastigotes, not overexpressed; no construct
T1 sequence (Q86G79 1-480): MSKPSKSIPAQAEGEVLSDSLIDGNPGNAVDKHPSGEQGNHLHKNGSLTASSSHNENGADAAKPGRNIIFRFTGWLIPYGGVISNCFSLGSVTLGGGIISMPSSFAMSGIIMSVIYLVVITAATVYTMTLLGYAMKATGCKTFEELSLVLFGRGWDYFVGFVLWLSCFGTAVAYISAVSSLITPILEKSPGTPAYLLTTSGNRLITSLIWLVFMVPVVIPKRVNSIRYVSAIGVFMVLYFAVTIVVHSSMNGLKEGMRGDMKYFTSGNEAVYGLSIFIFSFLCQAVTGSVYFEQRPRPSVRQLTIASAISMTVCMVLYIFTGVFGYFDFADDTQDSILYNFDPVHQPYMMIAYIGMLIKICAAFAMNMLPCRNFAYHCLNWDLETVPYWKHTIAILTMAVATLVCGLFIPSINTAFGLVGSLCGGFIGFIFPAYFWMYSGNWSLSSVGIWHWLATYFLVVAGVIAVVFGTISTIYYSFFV
The test is described as follows: inhibition of [3H]arginine uptake by intact promastigotes, rapid filtration. In kind it is cell-based. The conditions noted are these: read-out: Percent arginine transport inhibition. From the text:
inhibition of [3H]arginine uptake by intact promastigotes, rapid filtration on LdAAP3

As usually defined, the inhibition is the drop in the measured response relative to a control, in per cent. For `N=C(N)c1ccc(OCCCCCOc2ccc(C(=N)N)cc2)cc1` [compound 2, Pentamidine], the inhibition at 100 µM came out at 38%.
For the compound `NC(=O)NCCC[C@H](N)C(=O)O` [compound 9, L-citrulline], the inhibition at 1000 µM was 10%.
In the case of `CNC(=N)NCCC[C@H](N)C(=O)O` [compound 3, N-Methyl L-Arginine Acetate], the inhibition at 1000 µM is 66%.
Take `N=C(N)NOCC[C@H](N)C(=O)O` [compound 4, Canavanine]: the inhibition at 500 µM was determined as 40%.

Values taken from PMC6502434, “The arginine sensing and transport binding sites are distinct in the human pathogen Leishmania” (PLoS Neglected Tropical Diseases, 2019).
